Where a SMILES comes first, the peptide text is derived from it. The star is where a group is joined. NHC(CH2O-Palmitoyl)3 = CCCCCCCCCCCCCCCC(=O)OCC(COC(=O)CCCCCCCCCCCCCCC)(COC(=O)CCCCCCCCCCCCCCC)N*; X4 = CCCCCCCCCCCC(=O)OCC(CO)(COC(=O)CCCCCCCCCCC)N*; NHC(CH2OH)3 = OCC(CO)(CO)N*
Legend:
Cos 1 cells [1] = experiment: Transfection of pSVLCAT, CAT assay, Cos 1; type: cell-based, African Green Monkey; conditions: for Transfection (CAT): Table 1, Cos 1, optimised level of agent
Description: To test the transfection properties of the lead compound K3ATP3 (VerafectinA3), whole uncut plasmid carrying the gene encoding CAT (chloramphenicol acetyl transferase) under the control of the SV40 late promoter, pSVLCAT (Cameron, F. H. and Jennings, P. A. (1989) PNAS 86, 9139-9143) was mixed with the test agent and put on Cos 1 cells under various conditions. After 48 hours of culture the level of secreted CAT was assayed from the culture medium.
Solution I: 1 μg Plasmid DNA in 500 μl Dulbeccos Modified Eagles Medium (DME)
Solution II: 0-20 μl VerafectinA3 (2.5 mg/ml 25% DMSO) in 500 μl DME, Vortex
Combine solution I and II, vortex briefly and incubate at room temperature for 10 min.
Add mix to washed cells in 60 mm tissue culture dishes (seeded 0.5×10^6 /dish previous day) for 6 hrs at 37° C., 5% C02. Add 2 ml DME+10% FCS for remainder of 48 hrs. Assay CAT levels in tissue culture medium (Sleigh, M. J. (1986) Anal. Biochem. 156.251-256).
a--Compare VerafectinA3 dissolved in DMSO or ethanol.
b--Compare VerafectinA3 on cells 6 hrs to overnight. VerafectinA3 at 10 mg/ml in 100% solvent was diluted to 2.5 mg/ml with water.
Transfection was carried out as for experiment 1. VerafectinA3 was left in contact with the cells for varying times.
Protocol was the same for the Verafectins as described above. Lipofectamine protocol was according to manufacturers instructions. Cos 1 cells were seeded at 5×10^5 /60 mm dish and adhered overnight in DME with 10% FCS.
Solution A: 0.5 μg pSVLCAT/60 mm dish.
Solution B: Lipofectamine 10 and 15 μl 2 mg/ml (mixed formulation 3:1 with DOPE).
OR; VerafectinA3 and VerafectinG2 20 μl 2 mM (2.8 and 2.3 mg/ml respectively) stock.
OR; VerafectinG2 was also tested with an equimolar amount of DOPE. VerafectinG2 and DOPE were mixed in DDME and vortexed for 30 seconds before use. Solutions A and B were combined before overlaying on washed cells.
The serum free incubation period in the presence of test agents and DNA was 6 hrs, then 1 ml DME+10% FCS was added. At 24 hours medium was changed to 2 ml fresh DME+10% FCS until harvest at 48 hrs.
(§1) Cell lines Cos 1 or CHO were transfected with 0.5 μg of pSVLCAT or 2 μg of pPGKlacZ plasmid using a range of concentrations of each transfection compound. The optimal concentration of compound, that is the concentration giving the highest level of CAT at 48 hours or the greatest percentage of lac z (β-galactosidase) staining cells at 24 hours was used to collate data for Table 1. As all compounds were not tested in a single experiment, absolute figures indicating transfection were not used. Rather, symbols are used to indicate the transfection efficiency relative to Lipofectamine (BRL), which was included as a control in all experiments. Table 1 thus indicates the relative efficiencies of a number of compounds in mediating the transfection of at least one cell type.
(§2) All test lipopeptide reagents were originally dissolved at 10 mM in 75% DMSO, and subsequently diluted with water to make a 2 mM stock stored at 4° C. Volumes of 2 mM stock lipopeptide ranging from 2 μl to 15 μl were diluted in 500 μl of DDME. 1 μg of plasmid pSVLCAT was separately diluted in 500 μl of DDME. Solutions were combined for 10-20 min at room temperature before adding to 500 μl of DDME in 60 mm dishes of subconfluent CHO cells (2×10^5 day-1) or Cos 1 cells (5×10^5 day-1); washed free of serum with DDME.
(§3) Cells were incubated for 6 hrs under standard conditions of 37° C. and 5% CO2 for 6 hours. 1.5 ml of DME/Hams+10% FCS (CHO) or DME+10% FCS (Cos 1) was added to the cells for overnight incubation. Fresh DME/Hams+10% FCS or DME+10% FCS was used to replace the medium for a further 24 hours prior to harvest. Cell lysates were prepared and assayed for CAT activity as described above. For Cos 1 cells, culture supernatants were assayed for CAT activity.
For transfection of pSVLCAT and subsequent assay of CAT enzyme, experiments "a" and "b" were carried out as described above.

CHO cells = experiment: Transfection of pSVLCAT, CAT assay, CHO; type: cell-based, Chinese Hamster; conditions: for Transfection (CAT): Table 1, CHO, optimised level of agent
Description: Protocol was the same for Verafectin and Transfectam (see above) with the exception that 0.5 μg of pSVLCAT DNA was used /60 mm dish.
Lipofectamine protocol was according to manufacturer's instructions. 0.5 μg pSVLCAT/60 mm dish. CHO cells seeded 1×10^5 /60 mm dish and adhered overnight in DME/Hams medium with 10% FCS.
Transfectam 5 or 10 μl 1mg/400 μl stock solution.
Lipofectamine 5 or 10 μl 2 mg/ml (mixed formulation 3:1 with DOPE). VerafectinA3 (K3ATP3) and VerafectinG2 (K3G[Glycine]TP2) each at 5, 10 and 15 μl of 2 mM (2.8 and 2.3 mg/ml respectively) stock.
The serum free incubation period in the presence of test agents and DNA was 6 hours, then 1 ml DME/Hams+10% FCS was added. At 24 hrs the medium was changed to 2 ml of fresh DME/Hams+10% FCS until harvest at 48 hrs.
as §1, §2, §3
a. Using the standard transfection procedure described above, and 1 μg plasmid pSVLCAT, these formulations were tested on CHO cells at a single concentration equivalent to 10 μl of Verafectin A2 (2 mM) per sample and compared to unformulated compound and Lipofectamine in the same cell type. CAT production was assayed 48 hours after transfection.

Cos 1 cells [2] = experiment: β-gal microtitre plate transfection assay, Cos 1; type: cell-based, African Green Monkey; conditions: for units β-gal: Table 2, Cos 1, highest reading of 72 conditions
Source text: For experiment "c", a plasmid pPGKlaczNLS encoding β-galactosidase under the control of the mouse PGK promoter (kind gift from G.Hannan) or pSVGAL which utilises the SV40 early promoter (Sleigh, M. J. and Lockett, T. J. (1985). EMBO J. 4:3831-3837),was transfected. This experiment and assay were modified from Feigner et al J. Biol Chem. 269(4) 2550-2561 1994. This protocol allows the simultaneous assessment of 72 different combinations and concentrations of DNA and test agent in a microtitre tray. […] Cytotoxicity was assessed using alamar blue, and a sample graph is shown for experiment a.
Compounds were tested for their ability to transfect either the CAT or β-gal gene carried on plasmids, and assayed as described above.
(§4) The ratio of [lipid]/[DNA] at which that maximum was achieved is shown. Experiments shown were carried out in Cos 1 cells, as described above. MTS OD is a measure of relative viabilility of the cells exposed to the different agents, a higher value indicates greater cell viability. * These points were taken from a separate experiment and some slight variation between absolute numbers should be expected between experiments.
Each of these compounds was tested for transfection ability and cytotoxicity on standard cell lines using standard conditions as described above.
(§5) The ratio of [lipid]/[DNA] at which that maximum was achieved is shown in brackets for the two different cell types in the following order; (Cos 1) (CHO). Experiments shown were carried out in Cos 1 cells, as described above. Viability was measured with the dye alamar blue . # Denotes compounds tested in a separate experiment. * Viability in this experiment was determined with MTS. OD is a measure of relative viability of the cells exposed to the different agents, and as with alamar blue, a higher value indicates greater cell viability.

Cos 1 cells [3] = type: cell-based, African Green Monkey
Description: Relative levels of cytotoxicity were also assayed in subsequent experiments using the dye MTS, marketed as Cell titre 96 Aqueous (Promega).
as §4, §5

SMILES: CCCCCCCCCCCCCCCC(=O)OCC(CO)(COC(=O)CCCCCCCCCCCCCCC)NC(=O)[C@H](C)NC(=O)[C@H](CCCCN)NC(=O)[C@H](CCCCN)NC(=O)[C@@H](N)CCCCN [K3ATP2, trilysine alanine tris dipalmitate]
- Transfection (CAT) (Cos 1 cells [1]): +/-
- CAT levels relative to Lipofectamine, non-liposome formulation (CHO cells; CHO, unformulated): around 5%
- CAT activity (mean) (CHO cells; R1-R4 experiment e, CHO): 984 cpm
- Transfection (CAT) (CHO cells): +/-

SMILES: C[C@H](NC(=O)[C@H](CCCCN)NC(=O)[C@H](CCCCN)NC(=O)[C@@H](N)CCCCN)C(=O)NC(CO)(CO)CO [K3ATP0] (H-KKKA-{NHC(CH2OH)3})
- Transfection (CAT) (Cos 1 cells [1]): -

SMILES: CCCCCCCCCCCC(=O)OCC(CO)(COC(=O)CCCCCCCCCCC)NC(=O)[C@H](C)NC(=O)[C@H](CCCCN)NC(=O)[C@H](CCCCN)NC(=O)[C@@H](N)CCCCN [K3ATL2] (H-KKKA-X4)
- ratio [lipid]/[DNA] at which maximum was achieved (Cos 1 cells [2]; Table 2, Cos 1): 0.69
- units β-gal (Cos 1 cells [2]): 1.06 × 10^-5 units
- ratio [lipid]/[DNA] at which maximum was achieved (Cos 1 cells [2]; Table 3, Cos 1): .69
- β-gal (Cos 1) (Cos 1 cells [2]; Table 3, Cos 1, highest reading of 72 conditions): 1.06 × 10^-5
- MTS OD490-655 (Cos 1 cells [3]): 1.554
- Viability (Cos 1) (Cos 1 cells [3]): 1.55

SMILES: CCCCCCCCCCCCCC(=O)OCC(COC(=O)CCCCCCCCCCCCC)(COC(=O)CCCCCCCCCCCCC)NC(=O)[C@H](C)NC(=O)[C@H](CCCCN)NC(=O)[C@H](CCCCN)NC(=O)[C@@H](N)CCCCN [K3ATM3]
- ratio [lipid]/[DNA] at which maximum was achieved (Cos 1 cells [2]; Table 2, Cos 1): 1.39
- units β-gal (Cos 1 cells [2]): 2.86 × 10^-4 units
- ratio [lipid]/[DNA] at which maximum was achieved (Cos 1 cells [2]; Table 3, Cos 1): 1.39
- β-gal (Cos 1) (Cos 1 cells [2]; Table 3, Cos 1, # tested in a separate experiment): 2.86 × 10^-4
- MTS OD490-655 (Cos 1 cells [3]): 1.22
- Viability (Cos 1) (Cos 1 cells [3]): 1.22

SMILES: CCCCCCCCCCCCCCCC(=O)OCC(CO)(COC(=O)CCCCCCCCCCCCCCC)NC(=O)[C@H](CCCCN)NC(=O)[C@H](CCCCN)NC(=O)[C@@H](N)CCCCN [K2KTP2]
- transfection, dipalmitate versus tripalmitate (Cos 1 cells [1]; R1-R4 experiment d, Cos 1, lysine linker): significantly less active than the tripalmitate molecule

SMILES: CCCCCCCCCCCCCCCC(=O)OCC(COC(=O)CCCCCCCCCCCCCCC)(COC(=O)CCCCCCCCCCCCCCC)NC(=O)CNC(=O)[C@H](CCCCN)NC(=O)[C@H](CCCCN)NC(=O)[C@@H](N)CCCCN [K3GTP3] (H-KKKG-{NHC(CH2O-Palmitoyl)3})
- Transfection (CAT) (Cos 1 cells [1]): +/-
- Transfection (CAT) (CHO cells): +

SMILES: CCCCCCCCCCCCCCCC(=O)OCC(CO)(COC(=O)CCCCCCCCCCCCCCC)NC(=O)[C@H](C)NC(=O)[C@@H](N)CCCCN [K1ATP2]
- CAT activity (mean) (Cos 1 cells [1]; "x" peptide experiment b, Cos 1, 25 μl lysate, 135 min 37° C.): 12670 cpm

Reference: US5906922A, “Delivery of nucleic acids” (Commonwealth Scientific and Industrial Research Organisation, priority 1994, dated 1999)
